From US20250066290A1, “DHODH INHIBITORS CONTAINING A CARBOXYLIC ACID BIOISOSTERE” (IMMUNIC AG, priority 2021, published 2025)
≈ marks a conversion by molar mass, not a printed value. Like-named read-outs stand apart in the source and are kept apart here.

Assays:
[1] = Mouse pharmacokinetics, female, deuteration matched pair analysis; assay type: in vivo, mice (C57BL/6J); conditions: for AUC(0-t) / Cmax / half-life: C57BL/6J, mouse, in vivo; for AUC(0-t) / Cmax / F: female mice; for AUC(0-t): 0 to 8 h; for Cmax: 5 mg/kg oral, 1 mg/kg intravenous cassette; for F: bioavailability; for half-life: female
Procedure: In another matched pair analysis the benefit of deuteration of the N-methoxyacetamide moiety was tested: the pharmacokinetic properties of the compounds were evaluated in 3 female mice (C57BL/6J, 8 week old) after oral or intravenous cassette dosing to assess the oral bioavailability. Dose was 5 mg/kg (oral) and 1 mg/kg (intravenous), application volume was 5 mL/kg (oral) and 2 mL/kg (intravenous), vehicle was 5% solutol, 95% NaCl solution (at 0.9% saline concentration) for oral and 5% solutol, 5% ethanol, 90% NaCl solution (at 0.9% saline concentration) for intravenous application. At each designated time point (0.25, 0.5, 1, 2, 4 and 8 h after dosing for oral; 0.083, 0.25, 0.5, 1, 4 and 8 h after dosing for intravenous), 20 μL whole blood were collected from the tail vein into Li-heparin tubes, frozen on dry ice within 1-2 minutes of sampling and stored at −20° C. until processed for LC-MS analysis.

[2] = molecular target: N-terminally truncated recombinant hDHODH enzyme (Homo sapiens, UniProt Q02127); assay: biochemical; assay type: biochemical
N-terminally truncated recombinant hDHODH enzyme, sequence (Q02127 whole entry, looked up, the tested form may be a part): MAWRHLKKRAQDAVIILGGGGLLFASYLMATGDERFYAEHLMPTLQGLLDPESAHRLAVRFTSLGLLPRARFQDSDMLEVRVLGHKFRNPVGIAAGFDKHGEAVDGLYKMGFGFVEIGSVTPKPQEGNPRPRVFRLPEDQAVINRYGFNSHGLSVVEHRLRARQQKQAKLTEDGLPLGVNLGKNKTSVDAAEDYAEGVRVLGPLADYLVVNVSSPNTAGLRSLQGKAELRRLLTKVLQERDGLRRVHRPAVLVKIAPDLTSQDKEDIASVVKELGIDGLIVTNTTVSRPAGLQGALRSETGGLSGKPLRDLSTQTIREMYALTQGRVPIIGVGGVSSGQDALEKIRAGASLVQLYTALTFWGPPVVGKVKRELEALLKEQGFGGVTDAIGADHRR
Procedure: Briefly, the hDHODH concentration was adjusted in a way that an average slope of approximately 0.2 AU/min served as the positive control (e.g. without inhibitor). The standard assay mixture contained 60 μM 2,6-dichloroindophenol, 50 μM decylubiquinone and 100 μM dihydroorotate. The hDHODH enzyme with or without at least six different concentrations of the compounds was added and measurements were performed in 50 mM TrisHCl, 150 mM KCl and 0.1% Triton X-100 at pH 8.0 and at 30° C. The reaction was started by adding dihydroorotate and measuring the absorption at 600 nm for 2 min. For the determination of the IC50 values, each data point was recorded in triplicate. […].

SARS-CoV-2 = SARS-CoV-2 viral replication (YFP) assay; assay type: cell-based; conditions: Severe acute respiratory syndrome coronavirus 2, read-out: EC50 range
[3] = Rat pharmacokinetics, oral cassette dosing; parameters: species or system Sprague Dawley rats; conditions: Sprague Dawley, in vivo; for AUC(0-t) / Cmax / AUC(0-inf): female rats, oral cassette; for AUC(0-t): 0 to 8 h; for Cmax: blood; for AUC(0-inf): calculated to infinity; for half-life: female, po
Procedure: The pharmacokinetics of compounds of the present invention was evaluated in 3 female Sprague Dawley rats (8 week old) after oral cassette dosing (vehicle: 5% solutol/95% NaCl solution (at 0.9% saline concentration; application volume: 5 mL/kg) to asses the exposure of the test items. At each designated time point (0.25, 0.5, 1, 2, 4 and 8 h after dosing), 20 μL blood were collected from the tail vein into Li-heparin tubes, cooled on ice and stored at −20° C. until processed for LC-MS analysis. The obtained data is as follows: […]

[4] = molecular target: human URAT1 uptake transporter (Homo sapiens (Human), UniProt Q96S37); assay: Human URAT1 uptake transporter assay (MDCKII-URAT1-LV, SOLVO); assay type: cell-based; conditions: 10 μM compound, 20 μM uric acid probe substrate
human URAT1 uptake transporter, sequence (Q96S37 whole entry): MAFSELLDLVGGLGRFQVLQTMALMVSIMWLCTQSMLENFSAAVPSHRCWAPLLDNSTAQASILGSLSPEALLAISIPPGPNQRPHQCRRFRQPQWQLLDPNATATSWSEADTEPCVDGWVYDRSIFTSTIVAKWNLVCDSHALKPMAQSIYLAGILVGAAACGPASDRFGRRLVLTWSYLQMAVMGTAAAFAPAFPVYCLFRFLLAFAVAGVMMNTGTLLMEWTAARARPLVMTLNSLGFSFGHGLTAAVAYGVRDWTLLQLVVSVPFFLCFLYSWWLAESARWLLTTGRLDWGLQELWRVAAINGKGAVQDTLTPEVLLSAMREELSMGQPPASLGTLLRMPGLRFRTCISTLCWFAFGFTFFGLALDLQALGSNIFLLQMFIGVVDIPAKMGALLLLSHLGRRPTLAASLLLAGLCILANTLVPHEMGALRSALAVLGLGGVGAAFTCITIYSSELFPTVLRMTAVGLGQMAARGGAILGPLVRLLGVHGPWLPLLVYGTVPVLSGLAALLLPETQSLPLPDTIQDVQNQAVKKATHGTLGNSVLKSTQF
Procedure: In the human URAT1 uptake transporter assay (host cell line: MDCKII), the accumulation of the probe substrate in the presence of a DHODH inhibitor (at a concentration of 10 μM) into cells was measured. The assay was executed at SOLVO with catalogue number MDCKII-URAT1-LV. 20 μM uric acid served as probe substrate. Reference inhibitor was benzbromarone at a concentration of 300 μM, which served as internal control.

[5] = Metabolic stability in human liver microsomes
Text: (§1) The metabolism was monitored by HPLC-MS/MS. Verapamil served as positive control.

[6] = Metabolic stability in rat liver microsomes; conditions: SD
Text: as §1

[7] = Partition coefficient log D (n-octanol/PBS at pH 7.4); assay type: physicochemical; conditions: n-octanol/PBS at pH 7.4; read-out: logD
Procedure: The total amount of compound was determined as the peak area of the principal peak in a calibration standard (100 μM) containing organic solvent (MeOH/water, 60/40 v/v). The amount of compound in buffer was determined as the combined, volume-corrected and weighted areas of the corresponding peaks in the aqueous phases of three organic-aqueous samples of different composition. An automated weighting system was used to ensure the preferred use of raw data from those samples with well quantifiable peak signals. The amount of compound in organic was calculated by subtraction.
Subsequently, the partition coefficient (log D, n-octanol/PBS at pH 7.4) was calculated as the Log10 of the amount of compound in the organic phase divided by the amount of compound in the aqueous phase (Eurofins Discovery Services Item #417).

[8] = Mouse pharmacokinetics, male and female, cassette dosing; assay type: in vivo, mice (C57BL/6J); conditions: for AUC / Cmax / half-life: C57BL/6J, mouse, in vivo; for AUC: 0 to 24 h; for Cmax: 5 mg/kg oral, 1 mg/kg intravenous cassette; for F: bioavailability
Procedure: The pharmacokinetics of the compounds of the present invention was evaluated in 3 male and 3 female mice (C57BL/6J, 8 week old) after oral or intravenous cassette dosing to assess the oral bioavailability. Dose was 5 mg/kg (oral) and 1 mg/kg (intravenous), application volume was 5 mL/kg (oral) and 0.5 mL/kg (intravenous), vehicle was 5% solutol, 95% NaCl solution (at 0.9% saline concentration) for oral and 5% solutol, 5% ethanol, 90% NaCl solution (at 0.9% saline concentration) for intravenous. At each designated time point (0.5, 1, 2, 4, 8 and 24 h after dosing), 20 μL whole blood were collected from the tail vein into Li-heparin tubes, frozen on dry ice within 1-2 minutes of sampling and stored at −20° C. until processed for LC-MS analysis.

[9] = Kinetic aqueous solubility in PBS at pH 7.4; conditions: pH 7.4, aqueous buffer, kinetic from dmso stock
[10] = Cytotoxicity in human rhinovirus test
[11] = A-B and B-A permeability (Caco-2, pH 7.4/7.4); assay type: in vitro ADME, human; conditions: human; for recovery at 10 μM: Caco-2, Caco-2, 10 μM
Text: The Caco-2 cell line is a human colon adeno-carcinoma cell line that differentiates in culture and resembles the epithelial lining of the human small intestine. […]

human rhinovirus HRV-14 = assay: Antiviral activity on human rhinovirus; assay type: cell-based; conditions: Rhinovirus B, HRV14
[12] = high vidofludimus doses; cited from earlier work
SARS-CoV-2 d6-YFP = assay: Combinatorial drug assessment with EIDD-1931 by viral replication inhibition assay; assay type: cell-based
[13] = human DHODH assay, read-out: IC50 range

[2H]C([2H])([2H])ONC(=O)C1=C(C(=O)Nc2c(F)c(F)c(-c3cccc(OC([2H])([2H])[2H])c3)c(F)c2F)COC1 [Example 5/5]
AUC(0-t) [1]: 165000 ng·h/mL
Cmax [1]: 70000 ng/mL
F [1]: 56%
half-life [1]: > 8 h
IC50 [2, 13]: < 100 nM
EC50 (SARS-CoV-2): < 1000 nM
AUC(0-t) [3]: 113 µM·h
Cmax [3]: 19 µM
AUC(0-inf) [3]: 252 µM·h
half-life [3]: 8.4 h

NS(=O)(=O)NC(=O)C1=C(C(=O)Nc2c(F)c(F)c(-c3cccc(OC(F)(F)F)c3)c(F)c2F)CCC1 [Example 2, N^1-Sulfamoyl-N^2-(2,3,5,6-tetrafluoro-3′-(trifluoromethoxy)-[1,1′-biphenyl]-4-yl)cyclopent-1-ene-1,2-dicarboxamide]
human URAT1 uptake transporter stimulation @ 10 μM [4]: 72%
IC50 [2, 13]: < 100 nM
EC50 (SARS-CoV-2): 10000 to 25000 nM

[2H]C([2H])([2H])Oc1cccc(-c2c(F)c(F)c(NC(=O)C3=C(C(=O)NS(C)(=O)=O)CCC3)c(F)c2F)c1 [Example 1/7]
microsomal CLint ([5]; female): 4.01 µL/min/mg
microsomal CLint ([5]; male): 1.32 µL/min/mg
microsomal CLint ([6]; female): 30.5 µL/min/mg
microsomal CLint ([6]; male): 20 µL/min/mg
IC50 [2, 13]: < 100 nM
EC50 (SARS-CoV-2): < 10000 nM

[2H]C([2H])([2H])Oc1cccc(-c2cc(F)c(NC(=O)C3=C(C(=O)NS(N)(=O)=O)CCC3)c(F)c2)c1 [Example 2/1]
logD [7]: 0.5
human URAT1 uptake transporter stimulation @ 10 μM [4]: 22%
AUC ([8]; female mice): 8610 ng·h/mL
Cmax ([8]; female mice): 2280 ng/mL
AUC ([8]; male mice): 3070 ng·h/mL
Cmax ([8]; male mice): 1500 ng/mL
F ([8]; female mice): ♀ 144%
half-life ([8]; female): 2.4 h
F ([8]; male mice): ♂ 60%
half-life ([8]; male): 3.1 h
IC50 [2, 13]: < 100 nM
EC50 (SARS-CoV-2): > 50000 nM
solubility [9]: 235 µM (≈ 107 µg/mL)

[2H]C([2H])([2H])Oc1cccc(-c2cc(F)c(NC(=O)C3=C(C(=O)NOC)CCC3)c(F)c2)c1 [Example 4]
CC50 [10]: > 25000 nM
human URAT1 uptake transporter stimulation @ 10 μM [4]: 26%
recovery at 10 μM ([11]; A-B direction, read-out: recovery (A-B)): 60%
recovery at 10 μM ([11]; B-A direction, read-out: recovery (B-A)): 52%
Papp A→B at 10 μM ([11]; Caco-2, 10 μM, pH 7.4/7.4): 1.6 ×10⁻⁶ cm/s
Papp B→A at 10 μM ([11]; Caco-2, 10 μM, pH 7.4/7.4): 0.26 ×10⁻⁶ cm/s
AUC ([8]; female mice): 1210 ng·h/mL
Cmax ([8]; female mice): 690 ng/mL
AUC ([8]; male mice): 1780 ng·h/mL
Cmax ([8]; male mice): 1110 ng/mL
F ([8]; female mice): ♀ 87%
half-life ([8]; female): 1.3 h
F ([8]; male mice): ♂ 63%
half-life ([8]; male): 1.1 h
EC50 (SARS-CoV-2): < 10000 nM
EC50 (human rhinovirus HRV-14): 2200 nM

COc1cccc(-c2c(F)c(F)c(NC(=O)C3=C(C(=O)NS(C)(=O)=O)CCC3)c(F)c2F)c1 [Example 1/13]
microsomal CLint ([5]; female): 10.3 µL/min/mg
microsomal CLint ([5]; male): 14.4 µL/min/mg
microsomal CLint ([6]; female): 35.4 µL/min/mg
microsomal CLint ([6]; male): 25.5 µL/min/mg
IC50 [2, 13]: < 100 nM

COc1cccc(-c2ccc(NC(=O)C3=C(C(=O)O)CCC3)c(F)c2)c1 [vidofludimus, 2-((3-fluoro-3′-methoxy-[1,1′-biphenyl]-4-yl)carbamoyl)cyclopent-1-ene-1-carboxylic acid]
blood uric acid levels [12]: decrease
urine red blood cell count [12]: increase

CS(=O)(=O)NC(=O)C1=C(C(=O)Nc2c(F)c(F)c(-c3cccc(OC(F)(F)F)c3)c(F)c2F)CCC1 [Example 1, N^1-(Methylsulfonyl)-N^2-(2,3,5,6-tetrafluoro-3′-(trifluoromethoxy)-[1,1′-biphenyl]-4-yl)cyclopent-1-ene-1,2-dicarboxamide]
human URAT1 uptake transporter stimulation @ 10 μM [4]: 28%
antiviral effect in combination with EIDD-1931 (SARS-CoV-2 d6-YFP): synergistic antiviral effect
antiviral effect in combination with EIDD-1931 (SARS-CoV-2 d6-YFP; listed as Compound 1): synergistic antiviral effects
AUC ([8]; female mice): 7350 ng·h/mL
Cmax ([8]; female mice): 1320 ng/mL
AUC ([8]; male mice): 3200 ng·h/mL
Cmax ([8]; male mice): 754 ng/mL
F ([8]; female mice): ♀ 217%
half-life ([8]; female): 2.8 h
F ([8]; male mice): ♂ 49%
half-life ([8]; male): 2.9 h
IC50 [2, 13]: < 100 nM
EC50 (SARS-CoV-2): 10000 to 25000 nM
solubility [9]: 237 µM (≈ 128 µg/mL)

O=C(Nc1c(F)c(F)c(-c2cccc(OC(F)(F)F)c2)c(F)c1F)C1=C(c2nn[nH]n2)CCC1 [Example 3, N-(2,3,5,6-Tetrafluoro-3′-(trifluoromethoxy)-[1,1′-biphenyl]-4-yl)-2-(2H-tetrazol-5-yl)cyclopent-1-ene-1-carboxamide]
human URAT1 uptake transporter stimulation @ 10 μM [4]: <20%
IC50 [2]: 100 to 1000 nM
EC50 (SARS-CoV-2): < 10000 nM
solubility [9]: 207 µM (≈ 101 µg/mL)

[2H]C([2H])([2H])Oc1cccc(-c2cc(F)c(NC(=O)c3ccsc3C(=O)NOCCO)c(F)c2)c1 [Example 9/1]
microsomal CLint ([5]; female): 40.4 µL/min/mg
microsomal CLint ([5]; male): 67.2 µL/min/mg
microsomal CLint ([6]; female): 52.8 µL/min/mg
microsomal CLint ([6]; male): 162 µL/min/mg
IC50 [2, 13]: < 100 nM
EC50 (SARS-CoV-2): < 1000 nM

[2H]C([2H])([2H])Oc1cccc(-c2cc(F)c(NC(=O)C3=C(C(=O)NS(C)(=O)=O)CCC3)c(F)c2)c1 [Example 1/1]
logD [7]: 0.9
human URAT1 uptake transporter stimulation @ 10 μM [4]: <20%
EC50 (SARS-CoV-2): 25000 to 50000 nM
solubility [9]: 227 µM (≈ 103 µg/mL)

CONC(=O)c1sccc1C(=O)Nc1c(F)cc(-c2cccc(OC)c2)cc1F [Example 9/9]
microsomal CLint ([5]; female): 66.1 µL/min/mg
microsomal CLint ([5]; male): 93.9 µL/min/mg
microsomal CLint ([6]; female): 69.3 µL/min/mg
microsomal CLint ([6]; male): 192 µL/min/mg
IC50 [2, 13]: < 100 nM

CONC(=O)C1=C(C(=O)Nc2c(F)c(F)c(-c3cccc(OC)c3)c(F)c2F)COC1 [Example 5/9]
IC50 [2, 13]: < 100 nM
AUC(0-t) [3]: 91 µM·h
Cmax [3]: 17 µM
AUC(0-inf) [3]: 185 µM·h
half-life [3]: 6.6 h

[2H]C([2H])([2H])Oc1cccc(-c2c(F)c(F)c(NC(=O)C3=C(C(=O)NOC)COC3)c(F)c2F)c1 [Example 5/4]
AUC(0-t) [1]: 106000 ng·h/mL
Cmax [1]: 18000 ng/mL
F [1]: 39%
half-life [1]: > 8 h
IC50 [2, 13]: < 100 nM
EC50 (SARS-CoV-2): < 1000 nM
AUC(0-t) [3]: 125 µM·h
Cmax [3]: 21 µM
AUC(0-inf) [3]: 271 µM·h
half-life [3]: 7.9 h
